# Test results reported in paper PMC7724566, “Prospects for Clinical Development of Stat5 Inhibitor IST5-002: High Transcriptomic Specificity in Prostate Cancer and Low Toxicity In Vivo” (Cancers, 2020).
# Experiments:
# Stat5 = Stat5 phosphorylation in cancer cells (summary); type: cell-based, human; settings: read-out: IC50, inhibition of Stat5 phosphorylation, range over cell lines
# Excerpt: Down-regulation of Stat5 phosphorylation by IST5 can theoretically be caused by IST5 blocking Stat5 monomer docking to the activated receptor-Jak2 complex (Figure 1) and/or by IST5 inhibition of Jak2 kinase activity. […] To further investigate whether IST5 is able to disrupt dimerization of Stat5 molecules, we employed two separate cell-based assays. […] Because both phosphorylation and dimerization of Stat5 were inhibited at similar concentrations of IST5, it is difficult to determine whether disruption of Stat5 dimerization by IST5 is caused by suppression of Stat5 phosphorylation or a direct effect of IST5 in hindering Stat5 dimer-formation or both events occurring at the same time in the cell. However, it is known that heteromolecular interactions are easier to disrupt than interactions between two Stat5 monomers implying that the primary mechanism of action of IST5 may be suppression of Stat5 docking to the receptor-kinase complex. It is important to note that bypassing tyrosine kinases responsible for Stat5 phosphorylation by utilizing direct Stat5 inhibitor would be advantageous for therapy development for Stat5-regulated cancers because targeting Stat5 directly is likely to cause less off-target side effects than targeting kinases or cell surface receptors.
# ABL2 = target: T1, ABL2 (Homo sapiens, UniProt P42684); experiment: Kinase Seeker luminescence cell-free assay; type: binding; settings: percent activity of kinase after exposure to IST5 1 µM
# T1 construct: purchased Reaction Biology (JAK1/2/3, TYK2); Luceome Biotechnologies KinaseSeeker (others)
# T1 sequence (P42684 whole entry): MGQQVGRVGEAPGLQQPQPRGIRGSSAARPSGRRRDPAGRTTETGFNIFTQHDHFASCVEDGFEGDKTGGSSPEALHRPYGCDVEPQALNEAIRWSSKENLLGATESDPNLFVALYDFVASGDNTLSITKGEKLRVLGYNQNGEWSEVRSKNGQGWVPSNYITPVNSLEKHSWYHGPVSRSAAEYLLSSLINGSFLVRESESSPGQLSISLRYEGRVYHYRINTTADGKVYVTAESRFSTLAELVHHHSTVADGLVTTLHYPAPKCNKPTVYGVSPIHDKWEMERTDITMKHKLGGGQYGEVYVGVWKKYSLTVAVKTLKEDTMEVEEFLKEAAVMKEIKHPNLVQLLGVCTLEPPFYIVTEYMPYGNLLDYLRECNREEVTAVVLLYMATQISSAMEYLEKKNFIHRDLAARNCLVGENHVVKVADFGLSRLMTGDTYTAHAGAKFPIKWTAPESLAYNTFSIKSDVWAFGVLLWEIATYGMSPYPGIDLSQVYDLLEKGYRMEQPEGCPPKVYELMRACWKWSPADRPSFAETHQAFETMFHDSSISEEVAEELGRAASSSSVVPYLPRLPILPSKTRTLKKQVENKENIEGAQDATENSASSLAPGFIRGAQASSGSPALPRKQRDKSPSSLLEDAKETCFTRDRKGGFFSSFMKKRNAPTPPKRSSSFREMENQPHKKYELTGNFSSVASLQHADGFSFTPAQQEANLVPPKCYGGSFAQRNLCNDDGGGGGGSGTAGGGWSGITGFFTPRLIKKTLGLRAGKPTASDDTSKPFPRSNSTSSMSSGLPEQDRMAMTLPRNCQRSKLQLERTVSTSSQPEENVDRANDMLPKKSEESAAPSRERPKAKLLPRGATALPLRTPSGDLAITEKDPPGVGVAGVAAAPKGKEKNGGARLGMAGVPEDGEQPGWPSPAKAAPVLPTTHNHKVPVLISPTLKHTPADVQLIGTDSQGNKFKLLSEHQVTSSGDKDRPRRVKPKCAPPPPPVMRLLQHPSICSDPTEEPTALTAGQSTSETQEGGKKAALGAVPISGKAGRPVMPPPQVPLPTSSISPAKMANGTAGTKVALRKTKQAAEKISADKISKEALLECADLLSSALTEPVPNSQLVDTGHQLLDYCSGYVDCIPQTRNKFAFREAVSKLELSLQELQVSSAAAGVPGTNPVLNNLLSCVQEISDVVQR
# Description: (§1) For Jak1, Jak2, Jak3 and Tyk2, a radiometric filtration binding assay was conducted by Reaction Biologicals (Malvern, PA, USA) (Table 1). This radiometric assay is a cell-free assay which is based on conventional filter-binding assays, directly measuring kinase catalytic activity toward a specific substrate. For evaluation of the activity of the other kinases, the Kinase Seeker Technology was utilized (Luceome Biotechnologies, Tucson, AZ, USA), which is a luminescence-based cell-free assay. In this assay, the reassembly of luciferase fragments is mediated by the interaction of a kinase with an active site-dependent probe. The competitive displacement of the probe by an inhibitor is measured by a change in luminescence signal. Percent activity of each kinase after exposure to IST5 (1 µM) is presented.
# AKT1 = target: T2, AKT1 (Homo sapiens, UniProt P31749); experiment: Kinase Seeker luminescence cell-free assay; type: binding; settings: percent activity of kinase after exposure to IST5 1 µM
# T2 construct: purchased Reaction Biology (JAK1/2/3, TYK2); Luceome Biotechnologies KinaseSeeker (others)
# Description: as §1
# AKT2 = target: T3, AKT2 (Homo sapiens, UniProt P31751); experiment: Kinase Seeker luminescence cell-free assay; type: binding; settings: percent activity of kinase after exposure to IST5 1 µM
# T3 construct: purchased Reaction Biology (JAK1/2/3, TYK2); Luceome Biotechnologies KinaseSeeker (others)
# T3 sequence (P31751 whole entry): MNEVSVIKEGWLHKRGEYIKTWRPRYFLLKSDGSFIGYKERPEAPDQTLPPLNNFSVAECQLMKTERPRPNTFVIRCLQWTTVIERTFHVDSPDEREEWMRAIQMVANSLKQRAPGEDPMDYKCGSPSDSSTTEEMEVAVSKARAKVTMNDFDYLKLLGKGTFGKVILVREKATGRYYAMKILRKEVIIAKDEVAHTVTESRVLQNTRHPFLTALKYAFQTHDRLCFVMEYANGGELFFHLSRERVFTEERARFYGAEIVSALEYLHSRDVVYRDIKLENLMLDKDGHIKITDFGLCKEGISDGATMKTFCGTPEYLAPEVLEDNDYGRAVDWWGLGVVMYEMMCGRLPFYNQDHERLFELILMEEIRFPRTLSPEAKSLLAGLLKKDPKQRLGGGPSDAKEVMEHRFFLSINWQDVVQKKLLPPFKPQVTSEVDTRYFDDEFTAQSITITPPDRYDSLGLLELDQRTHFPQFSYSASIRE
# Description: as §1
# AKT3 = target: T4, AKT3 (Homo sapiens, UniProt Q9Y243); experiment: Kinase Seeker luminescence cell-free assay; type: binding; settings: percent activity of kinase after exposure to IST5 1 µM
# T4 construct: purchased Reaction Biology (JAK1/2/3, TYK2); Luceome Biotechnologies KinaseSeeker (others)
# Description: as §1
# AURKA = target: T5, AURKA (Homo sapiens, UniProt O14965); experiment: Kinase Seeker luminescence cell-free assay; type: binding; settings: percent activity of kinase after exposure to IST5 1 µM
# T5 construct: purchased Reaction Biology (JAK1/2/3, TYK2); Luceome Biotechnologies KinaseSeeker (others)
# Description: as §1
# BLK = target: T6, BLK (Homo sapiens, UniProt P51451); experiment: Kinase Seeker luminescence cell-free assay; type: binding; settings: percent activity of kinase after exposure to IST5 1 µM
# T6 construct: purchased Reaction Biology (JAK1/2/3, TYK2); Luceome Biotechnologies KinaseSeeker (others)
# Description: as §1
# CAMKK1 = target: T7, CAMKK1 (Homo sapiens, UniProt Q8N5S9); experiment: Kinase Seeker luminescence cell-free assay; type: binding; settings: percent activity of kinase after exposure to IST5 1 µM
# T7 construct: purchased Reaction Biology (JAK1/2/3, TYK2); Luceome Biotechnologies KinaseSeeker (others)
# Description: as §1
# CAMKK2 = target: T8, CAMKK2 (Homo sapiens, UniProt Q96RR4); experiment: Kinase Seeker luminescence cell-free assay; type: binding; settings: percent activity of kinase after exposure to IST5 1 µM
# T8 construct: purchased Reaction Biology (JAK1/2/3, TYK2); Luceome Biotechnologies KinaseSeeker (others)
# Description: as §1
# DDR2 = target: T9, DDR2 (Homo sapiens, UniProt Q16832); experiment: Kinase Seeker luminescence cell-free assay; type: binding; settings: percent activity of kinase after exposure to IST5 1 µM
# T9 construct: purchased Reaction Biology (JAK1/2/3, TYK2); Luceome Biotechnologies KinaseSeeker (others)
# Description: as §1
# EPHA1 = target: T10, EPHA1 (Homo sapiens, UniProt P21709); experiment: Kinase Seeker luminescence cell-free assay; type: binding; settings: percent activity of kinase after exposure to IST5 1 µM
# T10 construct: purchased Reaction Biology (JAK1/2/3, TYK2); Luceome Biotechnologies KinaseSeeker (others)
# Description: as §1
# FAK = target: T11, FAK (Homo sapiens, UniProt Q05397); experiment: Kinase Seeker luminescence cell-free assay; type: binding; settings: percent activity of kinase after exposure to IST5 1 µM
# T11 construct: purchased Reaction Biology (JAK1/2/3, TYK2); Luceome Biotechnologies KinaseSeeker (others)
# T11 sequence (Q05397 whole entry): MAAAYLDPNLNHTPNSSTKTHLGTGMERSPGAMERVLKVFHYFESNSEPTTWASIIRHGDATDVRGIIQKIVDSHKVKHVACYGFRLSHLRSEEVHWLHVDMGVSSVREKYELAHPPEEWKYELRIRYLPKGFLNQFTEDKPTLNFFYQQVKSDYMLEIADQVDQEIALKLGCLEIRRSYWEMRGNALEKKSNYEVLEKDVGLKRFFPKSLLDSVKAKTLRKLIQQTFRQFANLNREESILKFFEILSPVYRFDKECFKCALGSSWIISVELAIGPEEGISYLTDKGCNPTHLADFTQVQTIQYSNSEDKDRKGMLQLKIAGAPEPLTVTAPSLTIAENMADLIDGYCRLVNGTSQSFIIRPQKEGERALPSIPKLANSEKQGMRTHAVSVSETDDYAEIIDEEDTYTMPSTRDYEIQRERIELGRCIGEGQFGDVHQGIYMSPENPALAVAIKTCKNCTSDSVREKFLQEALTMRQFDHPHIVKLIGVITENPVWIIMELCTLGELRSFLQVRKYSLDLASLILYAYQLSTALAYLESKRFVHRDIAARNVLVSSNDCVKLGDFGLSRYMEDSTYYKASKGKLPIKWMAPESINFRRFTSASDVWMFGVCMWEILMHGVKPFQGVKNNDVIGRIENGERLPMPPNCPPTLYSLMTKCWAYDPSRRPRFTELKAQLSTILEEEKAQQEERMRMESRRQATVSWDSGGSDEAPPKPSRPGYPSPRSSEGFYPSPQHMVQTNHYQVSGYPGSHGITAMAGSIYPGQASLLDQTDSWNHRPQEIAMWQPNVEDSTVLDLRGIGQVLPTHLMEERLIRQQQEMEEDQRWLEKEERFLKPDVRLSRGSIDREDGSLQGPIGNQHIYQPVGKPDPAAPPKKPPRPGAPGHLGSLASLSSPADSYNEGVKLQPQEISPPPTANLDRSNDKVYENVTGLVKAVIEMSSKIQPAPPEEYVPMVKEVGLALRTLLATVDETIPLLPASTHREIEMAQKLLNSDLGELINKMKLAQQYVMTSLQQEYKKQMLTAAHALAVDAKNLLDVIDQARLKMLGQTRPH
# Description: as §1
# FGFR2 = target: T12, FGFR2 (Homo sapiens, UniProt P21802); experiment: Kinase Seeker luminescence cell-free assay; type: binding; settings: percent activity of kinase after exposure to IST5 1 µM
# T12 construct: purchased Reaction Biology (JAK1/2/3, TYK2); Luceome Biotechnologies KinaseSeeker (others)
# Description: as §1
# FLT1 = target: T13, FLT1 (Homo sapiens, UniProt P17948); experiment: Kinase Seeker luminescence cell-free assay; type: binding; settings: percent activity of kinase after exposure to IST5 1 µM
# T13 construct: purchased Reaction Biology (JAK1/2/3, TYK2); Luceome Biotechnologies KinaseSeeker (others)
# Description: as §1
# FYN = target: T14, FYN (Homo sapiens, UniProt P06241); experiment: Kinase Seeker luminescence cell-free assay; type: binding; settings: percent activity of kinase after exposure to IST5 1 µM
# T14 construct: purchased Reaction Biology (JAK1/2/3, TYK2); Luceome Biotechnologies KinaseSeeker (others)
# Description: as §1
# IGF1R = target: T15, IGF1R (Homo sapiens, UniProt P08069); experiment: Kinase Seeker luminescence cell-free assay; type: binding; settings: percent activity of kinase after exposure to IST5 1 µM
# T15 construct: purchased Reaction Biology (JAK1/2/3, TYK2); Luceome Biotechnologies KinaseSeeker (others)
# Description: as §1
# INSR = target: T16, INSR (Homo sapiens, UniProt P06213); experiment: Kinase Seeker luminescence cell-free assay; type: binding; settings: percent activity of kinase after exposure to IST5 1 µM
# T16 construct: purchased Reaction Biology (JAK1/2/3, TYK2); Luceome Biotechnologies KinaseSeeker (others)
# Description: as §1
# ITK = target: T17, ITK (Homo sapiens, UniProt Q08881); experiment: Kinase Seeker luminescence cell-free assay; type: binding; settings: percent activity of kinase after exposure to IST5 1 µM
# T17 construct: purchased Reaction Biology (JAK1/2/3, TYK2); Luceome Biotechnologies KinaseSeeker (others)
# Description: as §1
# LYN = target: T18, LYN (Homo sapiens, UniProt P07948); experiment: Kinase Seeker luminescence cell-free assay; type: binding; settings: percent activity of kinase after exposure to IST5 1 µM
# T18 construct: purchased Reaction Biology (JAK1/2/3, TYK2); Luceome Biotechnologies KinaseSeeker (others)
# T18 sequence (P07948 whole entry): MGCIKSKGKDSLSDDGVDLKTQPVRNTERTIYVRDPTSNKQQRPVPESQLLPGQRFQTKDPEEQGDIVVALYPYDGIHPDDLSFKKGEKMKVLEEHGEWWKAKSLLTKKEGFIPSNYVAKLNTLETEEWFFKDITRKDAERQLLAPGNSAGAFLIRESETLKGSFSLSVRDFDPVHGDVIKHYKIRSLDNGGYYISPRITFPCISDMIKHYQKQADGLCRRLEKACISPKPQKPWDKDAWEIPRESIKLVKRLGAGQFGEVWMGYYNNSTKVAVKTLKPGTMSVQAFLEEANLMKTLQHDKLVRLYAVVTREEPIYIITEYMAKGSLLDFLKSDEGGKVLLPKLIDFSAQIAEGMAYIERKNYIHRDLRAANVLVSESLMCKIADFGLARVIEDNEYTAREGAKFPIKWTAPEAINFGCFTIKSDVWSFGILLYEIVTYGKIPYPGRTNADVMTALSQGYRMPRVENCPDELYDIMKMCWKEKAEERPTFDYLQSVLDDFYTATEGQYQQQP
# Description: as §1
# MET = target: T19, MET (Homo sapiens, UniProt P08581); experiment: Kinase Seeker luminescence cell-free assay; type: binding; settings: percent activity of kinase after exposure to IST5 1 µM
# T19 construct: purchased Reaction Biology (JAK1/2/3, TYK2); Luceome Biotechnologies KinaseSeeker (others)
# Description: as §1
# MLK3 = target: T20, MLK3 (Homo sapiens, UniProt Q16584); experiment: Kinase Seeker luminescence cell-free assay; type: binding; settings: percent activity of kinase after exposure to IST5 1 µM
# T20 construct: purchased Reaction Biology (JAK1/2/3, TYK2); Luceome Biotechnologies KinaseSeeker (others)
# Description: as §1
# PAK1 = target: T21, PAK1 (Homo sapiens, UniProt Q13153); experiment: Kinase Seeker luminescence cell-free assay; type: binding; settings: percent activity of kinase after exposure to IST5 1 µM
# T21 construct: purchased Reaction Biology (JAK1/2/3, TYK2); Luceome Biotechnologies KinaseSeeker (others)
# Description: as §1
# PDGFRA = target: T22, PDGFRA (Homo sapiens, UniProt P16234); experiment: Kinase Seeker luminescence cell-free assay; type: binding; settings: percent activity of kinase after exposure to IST5 1 µM
# T22 construct: purchased Reaction Biology (JAK1/2/3, TYK2); Luceome Biotechnologies KinaseSeeker (others)
# Description: as §1
# PDGFRB = target: T23, PDGFRB (Homo sapiens, UniProt P09619); experiment: Kinase Seeker luminescence cell-free assay; type: binding; settings: percent activity of kinase after exposure to IST5 1 µM
# T23 construct: purchased Reaction Biology (JAK1/2/3, TYK2); Luceome Biotechnologies KinaseSeeker (others)
# Description: as §1
# PIM2 = target: T24, PIM2 (Homo sapiens, UniProt Q9P1W9); experiment: Kinase Seeker luminescence cell-free assay; type: binding; settings: percent activity of kinase after exposure to IST5 1 µM
# T24 construct: purchased Reaction Biology (JAK1/2/3, TYK2); Luceome Biotechnologies KinaseSeeker (others)
# Description: as §1
# PYK2 = target: T25, PYK2 (Homo sapiens, UniProt Q14289); experiment: Kinase Seeker luminescence cell-free assay; type: binding; settings: percent activity of kinase after exposure to IST5 1 µM
# T25 construct: purchased Reaction Biology (JAK1/2/3, TYK2); Luceome Biotechnologies KinaseSeeker (others)
# T25 sequence (Q14289 whole entry): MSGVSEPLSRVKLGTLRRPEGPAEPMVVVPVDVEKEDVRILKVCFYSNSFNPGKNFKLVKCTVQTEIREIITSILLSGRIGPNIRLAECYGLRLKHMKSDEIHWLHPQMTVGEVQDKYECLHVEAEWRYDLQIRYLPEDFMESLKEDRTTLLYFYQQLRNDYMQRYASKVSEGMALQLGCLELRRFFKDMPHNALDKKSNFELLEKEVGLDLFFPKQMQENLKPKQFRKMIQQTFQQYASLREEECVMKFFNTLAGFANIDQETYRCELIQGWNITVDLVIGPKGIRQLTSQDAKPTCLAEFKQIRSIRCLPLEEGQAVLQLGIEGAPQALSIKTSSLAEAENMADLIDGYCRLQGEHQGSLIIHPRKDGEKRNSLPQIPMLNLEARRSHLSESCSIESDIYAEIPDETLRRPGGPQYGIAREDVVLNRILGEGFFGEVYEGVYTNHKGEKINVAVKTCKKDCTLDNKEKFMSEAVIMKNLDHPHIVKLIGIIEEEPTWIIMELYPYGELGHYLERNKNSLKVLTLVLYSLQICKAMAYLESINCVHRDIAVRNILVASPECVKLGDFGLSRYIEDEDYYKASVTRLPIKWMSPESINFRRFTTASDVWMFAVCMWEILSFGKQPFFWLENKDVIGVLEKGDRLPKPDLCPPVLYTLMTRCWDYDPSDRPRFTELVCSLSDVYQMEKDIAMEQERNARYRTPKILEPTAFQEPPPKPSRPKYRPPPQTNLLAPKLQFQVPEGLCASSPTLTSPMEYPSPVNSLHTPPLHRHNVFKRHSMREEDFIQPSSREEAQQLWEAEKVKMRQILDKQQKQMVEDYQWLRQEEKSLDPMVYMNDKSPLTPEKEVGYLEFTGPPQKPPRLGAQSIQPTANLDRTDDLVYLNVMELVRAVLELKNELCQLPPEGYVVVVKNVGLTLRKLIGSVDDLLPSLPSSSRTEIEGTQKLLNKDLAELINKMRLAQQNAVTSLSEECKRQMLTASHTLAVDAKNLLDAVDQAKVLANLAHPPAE
# Description: as §1
# SRC = target: T26, SRC (Homo sapiens, UniProt P12931); experiment: Kinase Seeker luminescence cell-free assay; type: binding; settings: percent activity of kinase after exposure to IST5 1 µM
# T26 construct: purchased Reaction Biology (JAK1/2/3, TYK2); Luceome Biotechnologies KinaseSeeker (others)
# Description: as §1
# TBK1 = target: T27, TBK1 (Homo sapiens, UniProt Q9UHD2); experiment: Kinase Seeker luminescence cell-free assay; type: binding; settings: percent activity of kinase after exposure to IST5 1 µM
# T27 construct: purchased Reaction Biology (JAK1/2/3, TYK2); Luceome Biotechnologies KinaseSeeker (others)
# Description: as §1
# TIE1 = target: T28, TIE1 (Homo sapiens, UniProt P35590); experiment: Kinase Seeker luminescence cell-free assay; type: binding; settings: percent activity of kinase after exposure to IST5 1 µM
# T28 construct: purchased Reaction Biology (JAK1/2/3, TYK2); Luceome Biotechnologies KinaseSeeker (others)
# Description: as §1
# TRKB = target: T29, TRKB (Homo sapiens, UniProt Q16620); experiment: Kinase Seeker luminescence cell-free assay; type: binding
# T29 construct: purchased Reaction Biology (JAK1/2/3, TYK2); Luceome Biotechnologies KinaseSeeker (others)
# T29 sequence (Q16620 32-822): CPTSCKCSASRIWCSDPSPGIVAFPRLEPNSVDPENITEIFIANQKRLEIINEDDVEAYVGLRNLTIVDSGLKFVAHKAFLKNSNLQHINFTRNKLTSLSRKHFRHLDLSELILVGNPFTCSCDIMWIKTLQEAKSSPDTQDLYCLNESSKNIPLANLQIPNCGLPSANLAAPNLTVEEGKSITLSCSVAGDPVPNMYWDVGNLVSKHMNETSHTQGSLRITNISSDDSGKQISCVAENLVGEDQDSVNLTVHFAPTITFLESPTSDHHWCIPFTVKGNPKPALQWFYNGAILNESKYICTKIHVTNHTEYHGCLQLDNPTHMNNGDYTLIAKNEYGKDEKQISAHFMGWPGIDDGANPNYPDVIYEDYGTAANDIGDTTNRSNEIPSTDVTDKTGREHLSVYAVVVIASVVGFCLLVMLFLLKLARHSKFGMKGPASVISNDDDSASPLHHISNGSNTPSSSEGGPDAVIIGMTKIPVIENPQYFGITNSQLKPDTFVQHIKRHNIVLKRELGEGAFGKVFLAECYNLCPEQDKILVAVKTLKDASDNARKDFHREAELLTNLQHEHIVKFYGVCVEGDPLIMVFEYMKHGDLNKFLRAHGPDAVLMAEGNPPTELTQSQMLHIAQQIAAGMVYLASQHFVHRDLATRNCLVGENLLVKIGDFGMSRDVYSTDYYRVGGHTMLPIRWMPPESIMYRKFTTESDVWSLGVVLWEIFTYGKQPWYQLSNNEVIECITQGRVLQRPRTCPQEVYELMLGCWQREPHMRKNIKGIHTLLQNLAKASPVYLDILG
# Description: as §1
# VEGFR2 = target: T30, VEGFR2 (Homo sapiens, UniProt P35968); experiment: Kinase Seeker luminescence cell-free assay; type: binding; settings: percent activity of kinase after exposure to IST5 1 µM
# T30 construct: purchased Reaction Biology (JAK1/2/3, TYK2); Luceome Biotechnologies KinaseSeeker (others)
# Description: as §1
# YES1 = target: T31, YES1 (Homo sapiens, UniProt P07947); experiment: Kinase Seeker luminescence cell-free assay; type: binding; settings: percent activity of kinase after exposure to IST5 1 µM
# T31 construct: purchased Reaction Biology (JAK1/2/3, TYK2); Luceome Biotechnologies KinaseSeeker (others)
# Description: as §1
# p38g = target: T32, p38g (Homo sapiens, UniProt P53778); experiment: Kinase Seeker luminescence cell-free assay; type: binding; settings: percent activity of kinase after exposure to IST5 1 µM
# T32 construct: purchased Reaction Biology (JAK1/2/3, TYK2); Luceome Biotechnologies KinaseSeeker (others)
# Description: as §1
smiles,measurement,setting,value
O=P(O)(O)OCC1OC(n2cnc3c(NCc4ccccc4)ncnc32)C(O)C1O (stereo not shown) [IST5],IC50,Stat5,1100 to 1300 nM
same,Activity,ABL2,88.6%
same,Activity,AKT1,100.0%
same,Activity,AKT2,94.3%
same,Activity,AKT3,95.8%
same,Activity,AURKA,85.3%
same,Activity,BLK,100.0%
same,Activity,CAMKK1,94.2%
same,Activity,CAMKK2,100.0%
same,Activity,DDR2,97.4%
same,Activity,EPHA1,94.0%
same,Activity,FAK,99.0%
same,Activity,FGFR2,85.7%
same,Activity,FLT1,88.4%
same,Activity,FYN,95.8%
same,Activity,IGF1R,100.0%
same,Activity,INSR,91.0%
same,Activity,ITK,100.0%
same,Activity,LYN,90.4%
same,Activity,MET,100.0%
same,Activity,MLK3,93.5%
same,Activity,PAK1,98.8%
same,Activity,PDGFRA,100.0%
same,Activity,PDGFRB,78.4%
same,Activity,PIM2,91.8%
same,Activity,PYK2,95.7%
same,Activity,SRC,92.1%
same,Activity,TBK1,92.8%
same,Activity,TIE1,100.0%
same,Activity,"TRKB; TRKB, percent activity of kinase after exposure to IST5 1 µM",89.4%
same,inhibitory activity on TrkB,TRKB; Table 1,no inhibitory activity
same,Activity,VEGFR2,89.1%
same,Activity,YES1,100.0%
same,Activity,p38g,100.0%
